# In publication PMC5608908, “Novel scaffolds for inhibition of Cruzipain identified from high-throughput screening of anti-kinetoplastid chemical boxes” (Scientific Reports, 2017):
# pIC50: −log10 of the molar value.
# How the values were obtained:
# T. cruzi = test system: T. cruzi; parameters: method as in PMID 9705954, PMID 17698625, PMID 16304193; conditions: immunocompetent and immunodeficient mice, dogs; cited from earlier work
# Cruzipain [1] = target: T1, Cruzipain (Trypanosoma cruzi, UniProt P25779); format: biochemical; conditions: for Behavior of dose-response curve: compound 62.5 µM – 7.5 pM; for Ki (tight-binding, suggested from IC50 in the order of the enzyme concentration): estimate from IC50 values
# T1 construct: Cruzipain (CZP) was purified to homogeneity from epimastigotes of the Tul 2 strain; from tissue; host or cells: Trypanosoma cruzi epimastigotes, Tul 2 strain (natural enzyme, not recombinant)
# Protocol: (§1) Assay was performed in a solid black 384-well plate (final reaction volume ~80 μL) and the release of 7-amino-4-methylcoumarin was monitored continuously at 30 °C with a Beckman Coulter DTX 880 Multimode Reader (Radnor, Pennsylvania, USA) using standard 340 nm excitation and 450 nm emission filter set. Final substrate concentration was set to 2 μM to match previously reported conditions[31] and being close to the KM value for this substrate. Optimal Cruzipain assay concentration (5.8 nM) was selected from 2-fold serial dilutions to match three criteria: (i) being linearly proportional to V0, (ii) display robust signal evolution at 2 μM substrate concentration and (iii) display linear kinetics for enough time to perform several reading cycles (at least 10 cycles, minimum time between cycles: 264 sec) through the 384-wells. In all cases, E-64(final concentration 125 nM) was used as positive inhibition control.
# To avoid any positional and/or association bias, we randomly defined the row position for each compound. One μL of compounds stock (10 mM in DMSO) and E-64 (10 mM in DMSO) were added to the first well of column 1, followed by addition of 40 μL of 100 mM NaAc, 5 mM DTT, 0.01% Triton X-100 pH 5.5 buffer. After addition of 20 μL of the same buffer to subsequent wells of the plate, 22 serial 2-fold dilutions were made horizontally. The last two positions of every row were used, alternatively, for C^+ and C^− controls to reduce any positional and/or association bias. Then, 20 μL of activity buffer containing Cruzipain ([…]) were added to each well, except for those corresponding to C^−; completed with 20 μL of activity buffer. After homogenization, 15 minutes of incubation at 30 °C and autofluorescence measurement, 40 μL of a 4 μM solution of Z-FR-AMC substrate (in activity buffer) was added to the previous mix. Data collection and processing were performed exactly as described above. Percentage of Cruzipain residual activity was calculated for each condition according to Eq. 7:7 %Res.Act.^CRUZIPAIN=100⋅[(dF/dt^WELL−µ^C−)/(µ^C+−µ^C−)] where dF/dt^WELL represents the slope of each compound well and µ^C+ and µ^C− the average of Cruzipain (no-inhibition) and substrate (no-enzyme) controls, respectively. The IC50 and Hill slope parameters for each compound were estimated by fitting the four-parameter Hill equation to experimental data from dose-response curves using the GraphPad Prism program (version 5.03).
# Cruzipain [2] = target: T1, Cruzipain; format: biochemical; conditions: for Hit call by statistically robust cutoff (µC+ − 3 × SDC+): compound 25 µM, singlet
# Protocol: as §1
# To perform the high-throughput screening, 1 μL of each compound (2 mM in DMSO), E-64 (10 μM in DMSO) or DMSO (negative controls) were dispensed into 384-well Corning black solid-bottom assay plates. Then, 40 μL of 100 mM NaAc, 5 mM DTT, 0.01% Triton X-100 pH 5.5 containing Cruzipain (11,6 nM) were added to each well, plates were homogenized (30 seg, orbital, medium intensity) and each well subjected to a single autofluorescence read (exc/ems = 340/450 nm). Plates were incubated in darkness for 15 min at 30 °C and then 40 μL of Z-FR-AMC (4 μM) in assay buffer were added to each well to start the reaction. After homogenization (30 seg, orbital, medium intensity), the fluorescence of AMC (exc/ems = 340/450 nm) was acquired kinetically for each well (12 read cycles, one cycle every 300 seconds).
# Raw screening measurements were used to determine the slope (dF/dt) of progression curves by linear regression for control and compound wells. In the case of control-dependent hit selection criterium, percent inhibition (%Inh) was calculated for each compound according to Eq. 6:6 %Inh=100⋅[1−(dF/dt^WELL−µ^C−)/(µ^C+−µ^C−)] where dF/dt^WELL represents the slope of each compound well and µ^C+ and µ^C− the average of Cruzipain (no-inhibition) and substrate (no-enzyme) controls, respectively.
# Cruzipain [3] = target: T1, Cruzipain; assay: biochemical; conditions: Cruzipain 11.6 nM; for pIC50: Z-FR-AMC 2 μM, pH 5.5, 30 °C, 15 min preincubation, four-parameter Hill fit; for Hill Slope: four-parameter Hill fit of dose-response curve
# [4] = test system: T. cruzi intracellular amastigotes; parameters: method as in PMID 25740547; conditions: T. cruzi intracellular amastigotes vs T. brucei axenic bloodstream forms; cited from earlier work
# Cruzipain [5] = target: T1, Cruzipain; format: biochemical; conditions: E-64 1 nM, Cruzipain 5.8 nM, 24 replicates
# Protocol: as §1, with “In all cases, E-64(final concentration 125 nM) was used as positive inhibition control.” left out
# T1 sequence (P25779 123-467): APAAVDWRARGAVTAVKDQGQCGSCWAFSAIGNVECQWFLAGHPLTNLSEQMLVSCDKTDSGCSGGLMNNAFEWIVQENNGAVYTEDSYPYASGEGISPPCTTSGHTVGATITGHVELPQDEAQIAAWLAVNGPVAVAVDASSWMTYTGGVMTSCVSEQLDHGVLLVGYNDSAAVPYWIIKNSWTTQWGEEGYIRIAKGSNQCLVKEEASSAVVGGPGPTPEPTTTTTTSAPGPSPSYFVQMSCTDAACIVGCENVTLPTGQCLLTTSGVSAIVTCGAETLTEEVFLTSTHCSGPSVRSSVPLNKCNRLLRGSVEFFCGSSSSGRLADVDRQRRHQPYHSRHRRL
Structure (SMILES),Hit call by statistically robust cutoff (µC+ − 3 × SDC+) (Cruzipain [2]),pIC50 (Cruzipain [3]),Hill Slope (Cruzipain [3]),also measured
"CN1CCN(C(=O)N[C@@H](Cc2ccccc2)C(=O)N[C@H](/C=C/S(=O)(=O)c2ccccc2)CCc2ccccc2)CC1 [Compound K777, N-[(2 S)-1-[[(E,3 S)-1-(benzenesulfonyl)-5-phenylpent-1-en-3-yl]amino]-1-oxo-3-phenylpropan-2-yl]-4-methylpiperazine-1-carboxamide]",,,,Efficacy in preclinical models of T. cruzi infection (T. cruzi): efficacious
NCC(Cc1ccccc1)NC(=O)c1cnc(-c2c[nH]c3ncccc23)s1.O=C(O)C(F)(F)F.O=C(O)C(F)(F)F (stereo not shown) [TCMDC-143176],,,,Behavior of dose-response curve (Cruzipain [1]): activation phenotype at highest concentrations
CC1(Oc2cncc(Cl)c2)CCN(Cc2cc3ccccc3[nH]2)C1 (stereo not shown) [TCMDC-143162],positive hits,,,
COc1cc(OC)cc(C(=O)N[C@@H](CC(C)C)C(=O)NC2(C#N)CC2)c1 [TCMDC-143390],,7.17,"−0,9354","IC50 range against Cruzipain, in words (Cruzipain [1]): submicromolar range; Ki (tight-binding, suggested from IC50 in the order of the enzyme concentration) (Cruzipain [1]): 1 to 4 × 10^−8 M"
CC(C)C[C@H](NC(=O)c1ccc(-c2ccccc2)o1)C(=O)NC1(C#N)CC1 [TCMDC-143393],,7.52,"−0,957","IC50 range against Cruzipain, in words (Cruzipain [1]): submicromolar range; Ki (tight-binding, suggested from IC50 in the order of the enzyme concentration) (Cruzipain [1]): 1 to 4 × 10^−8 M; IC50 against T. cruzi relative to T. brucei [4]: between one and two orders of magnitude higher"
NC(N)=Nc1nc(-c2ccc(NC(N)=NCCN3CCCC3)cc2)cs1 [TCMDC-143640],,2.47,"−0,9825",
Cl.Cl.O=c1ccc2ccc(F)c3c2n1C[C@H]3CN1CCN(CC(O)c2cc3c(cn2)OCS3)CC1 (stereo partly shown) [TCMDC-143158],positive hits,,,
"CC(C)C[C@H](NC(=O)[C@H]1O[C@@H]1C(=O)O)C(=O)NCCCCN=C(N)N (relative stereo) [Compound E-64, trans-epoxysuccinyl-L-leucylamido-(4-guanidino)butane, reference compound]",,,,"E-64 Control activity slope, Mean, Plate 2 (Cruzipain [2]; E-64 final concentration 125 nM, Cruzipain control 210.84): 6.36 RFU/sec; E-64 Control activity slope, Mean, Plate 1 (Cruzipain [2]; E-64 final concentration 125 nM, Cruzipain control 893.31): 19.30 RFU/sec; average inhibition with respect to Cruzipain control (Cruzipain [5]): 9.87%"

# Now from value to compound, other results behind:
Hit call by statistically robust cutoff (µC+ − 3 × SDC+) (Cruzipain [2]),pIC50 (Cruzipain [3]),Hill Slope (Cruzipain [3]),Structure (SMILES),also measured
positive hits,,,COc1ccc2nccc([C@H](O)CN3CC[C@H](NC(=O)c4ccc(Br)cc4)[C@@H](O)C3)c2n1 [TCMDC-143527],
,4.79,"−0,7998",COc1cc(F)c2ncc(F)c(CCN3CC[C@H](NCc4cc5c(cn4)OCS5)[C@@H](O)C3)c2c1 [TCMDC-143510],
,2.25,"−0,7542",COc1ccc(OC)c(S(=O)(=O)N(Cc2c(F)cccc2F)C2CCN(C#N)C2)c1 (stereo not shown) [TCMDC-143370],"IC50 range against Cruzipain, in words (Cruzipain [1]): low micromolar range"
,4.83,"−0,8108",COc1ccc2ncc(Cl)c(CCN3CCC(NCc4cc5c(cn4)OCS5)C(O)C3)c2n1 (stereo not shown) [TCMDC-143513],
positive hits,,,COc1ccc2ncc(=O)n(CCN3CC[C@H](NCc4ncc(Cl)c5[nH]ncc45)[C@H](O)C3)c2n1 [TCMDC-143373],Behavior of dose-response curve (Cruzipain [1]): erratic behavior
